Series [1] has as its system Human whole blood stimulated with a TLR2 agonist (lipoteichoic acid), IL-6 levels. The experiment in a line: IRAK4 Whole Blood Assay. In kind it is cell-based. The conditions noted are these: Homo sapiens, lipoteichoic acid 10 μg/mL. In short, it runs like this: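 IL-6 was quantified by cytometric bead assay in supernatants of human blood (ACD-A) stimulated for 5 h with lipoteichoic acid at 10 μg/mL final. Compound exposure preceded stimulation for 60 min at 37 °C, 5% CO2.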

The next series has as its target IRAK4 (Homo sapiens (Human), UniProt Q9NWZ3). Description: IRAK4 Inhibition Assay. The conditions noted are these: ATP 500 μM; IRAK4 0.6 nM. The series is classed as biochemical. In short, it runs like this: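 Mobility-shift kinase assay: 0.6 nM IRAK4, 500 μM ATP, 1.5 μM fluorescent peptide, 60 min, room temperature. Percent inhibition was normalised between enzyme-free and DMSO-only wells.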

The nature of series [2]: Caco-2 Permeability Assay. The conditions noted are these: human, Caco-2, test compound 3 μM. The series is classed as in vitro ADME. In short, it runs like this:
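Bidirectional permeability measured over 2 h at 37° C, compound dosed at 3 μM in the donor compartment (apical for absorptive, basolateral for secretive) with plain buffer as receiver.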
On the technique in general: Passage across Caco-2 layers is used to estimate intestinal permeability.

IRAK4, sequence (Q9NWZ3 whole entry, species assumed): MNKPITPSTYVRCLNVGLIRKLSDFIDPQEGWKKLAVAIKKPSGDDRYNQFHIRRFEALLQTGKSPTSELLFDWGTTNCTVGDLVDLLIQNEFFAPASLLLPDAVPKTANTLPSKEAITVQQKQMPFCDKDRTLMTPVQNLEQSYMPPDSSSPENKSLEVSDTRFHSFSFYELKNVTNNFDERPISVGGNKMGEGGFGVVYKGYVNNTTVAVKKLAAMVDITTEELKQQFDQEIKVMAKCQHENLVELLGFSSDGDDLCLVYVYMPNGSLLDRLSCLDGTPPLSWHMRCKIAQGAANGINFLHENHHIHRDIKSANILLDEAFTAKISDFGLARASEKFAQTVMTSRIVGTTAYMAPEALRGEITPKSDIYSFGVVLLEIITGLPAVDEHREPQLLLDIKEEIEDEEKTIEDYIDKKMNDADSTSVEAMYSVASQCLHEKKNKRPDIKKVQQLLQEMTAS

As usually defined, the EC50 is the concentration that produces a half-maximal response. Usually IC50 stands for the concentration that inhibits the measured activity by half. Broadly, the Papp is the rate of passage across a membrane or cell layer, normalised by area and donor concentration. Regarding `CC(C)Nc1cc(-n2ncc3cc(C#N)cnc32)ncc1-c1cn([C@H]2CCN(S(C)(=O)=O)C[C@H]2O)nn1` [Example 181, 1-(5-(1-((3R,4S)-3-hydroxy-1-(methylsulfonyl)piperidin-4-yl)-1H-1,2,3-triazol-4-yl)-4-(isopropylamino)pyridin-2-yl)-1H-pyrazolo[3,4-b]pyridine-5-carbonitrile], the response in series [1] was half-maximal at 400 nM (EC50). Moreover, the IC50 at IRAK4 is 7 nM. Besides, in series [2], the Papp at 2 h, 3 µM was < 1.5 ×10⁻⁶ cm/s.

For `CC(C)Nc1cc(-n2ncc3cc(C#N)cnc32)ncc1-c1cn([C@@H]2CCN(S(C)(=O)=O)C[C@@H]2O)nn1` [Example 188, 1-(5-(1-((3S,4R)-3-hydroxy-1-(methylsulfonyl)piperidin-4-yl)-1H-1,2,3-triazol-4-yl)-4-(isopropylamino)pyridin-2-yl)-1H-pyrazolo[3,4-b]pyridine-5-carbonitrile], the EC50 in series [1] was 110 nM. For the same compound, on IRAK4, the IC50 amounted to 18 nM. Besides, in series [2], the Papp at 2 h, 3 µM was < 1.5 ×10⁻⁶ cm/s.

As to `CC(=O)N1CC[C@@H](n2cc(-c3cnc(-n4ncc5cc(C#N)cnc54)cc3NC(C)C)nn2)[C@@H](O)C1` [Example 191, 1-(5-(1-((3S,4R)-1-acetyl-3-hydroxypiperidin-4-yl)-1H-1,2,3-triazol-4-yl)-4-(isopropylamino)pyridin-2-yl)-1H-pyrazolo[3,4-b]pyridine-5-carbonitrile], the EC50 in series [1] is 390 nM. Besides, on IRAK4, the IC50 worked out at 16 nM. Besides, the Papp at 2 h, 3 µM in series [2] is < 1.5 ×10⁻⁶ cm/s.

Compound `CC(C)Nc1cc(-n2ncc3cc(C#N)cnc32)ncc1-c1cn(CC(=O)N2CCNCC2)nn1` [Example 192, 1-(4-(isopropylamino)-5-(1-(2-oxo-2-(piperazin-1-yl)ethyl)-1H-1,2,3-triazol-4-yl)pyridin-2-yl)-1H-pyrazolo[3,4-b]pyridine-5-carbonitrile] displayed an EC50 in series [1] of 150 nM. For the same compound, the IC50 on IRAK4 was found to be 3 nM. Moreover, in series [2], the apparent permeability coefficient (Papp) at 2 h, 3 µM is < 1.5 ×10⁻⁶ cm/s.

In series [1], `CC(C)Nc1cc(-n2ncc3cc(C#N)cnc32)ncc1-c1cn(C2CCNCC2)nn1` [Example 195, 1-(4-(isopropylamino)-5-(1-(piperidin-4-yl)-1H-1,2,3-triazol-4-yl)pyridin-2-yl)-1H-pyrazolo [3,4-b]pyridine-5-carbonitrile] had an EC50 of 450 nM. Besides, the IC50 on IRAK4 was found to be 2 nM. Moreover, in series [2], the Papp at 2 h, 3 µM was < 1.5 ×10⁻⁶ cm/s.

In turn, `CC(C)Nc1cc(-n2ncc3cc(C#N)cnc32)ncc1-c1cn(C2CCN(S(C)(=O)=O)CC2)nn1` [Example 196, 1-(4-(isopropylamino)-5-(1-(1-(methylsulfonyl)piperidin-4-yl)-1H-1,2,3-triazol-4-yl)pyridin-2-yl)-1H-pyrazolo[3,4-b]pyridine-5-carbonitrile] showed an EC50 in series [1] of 1210 nM. For the same compound, at IRAK4, the IC50 turned out to be 4 nM. In series [2], this compound had an apparent permeability (Papp) at 2 h, 3 µM of 4.7 ×10⁻⁶ cm/s.

`CC(C)Nc1cc(-n2ncc3cc(C#N)cnc32)ncc1-c1cn(C(C)C)nn1` [Example 213, 1-(5-(1-isopropyl-1H-1,2,3-triazol-4-yl)-4-(isopropylamino)pyridin-2-yl)-1H-pyrazolo[3,4-b]pyridine-5-carbonitrile] yielded an EC50 in series [1] of 1750 nM. For the same compound, the IC50 on IRAK4 came to 5 nM. Besides, the Papp at 2 h, 3 µM in series [2] came out at 19.3 ×10⁻⁶ cm/s.

Regarding `CC(C)Nc1cc(-n2ncc3cc(C#N)cnc32)ncc1-c1cn(C2CCOC2)nn1` (stereo not drawn) [Example 214, 1-(4-(isopropylamino)-5-(1-(tetrahydrofuran-3-yl)-1H-1,2,3-triazol-4-yl)pyridin-2-yl)-1H-pyrazolo[3,4-b]pyridine-5-carbonitrile], the midpoint of the response in series [1], the EC50, lay at 920 nM. Further, the IC50 on IRAK4 was 7 nM. This compound gave an apparent permeability coefficient (Papp) at 2 h, 3 µM in series [2] of 13.6 ×10⁻⁶ cm/s.

`CC(C)Nc1cc(-n2ncc3cc(C#N)cnc32)ncc1-c1cn([C@H]2CCCC[C@H]2O)nn1` [Example 216, 1-(5-(1-((1S,2R)-2-hydroxycyclohexyl)-1H-1,2,3-triazol-4-yl)-4-(isopropylamino)pyridin-2-yl)-1H-pyrazolo[3,4-b]pyridine-5-carbonitrile] showed an EC50 in series [1] of 1650 nM. Besides, the IC50 at IRAK4 is 2 nM. This compound also showed a Papp at 2 h, 3 µM in series [2] of 7.3 ×10⁻⁶ cm/s.

Values taken from patent US10294229B2, “Heteroaryl substituted aminopyridine compounds” (BRISTOL-MYERS SQUIBB COMPANY, priority 2015, dated 2019).
